For nine compounds, EC50 results are on record in US9499550B2 (BRISTOL-MYERS SQUIBB COMPANY, priority 2012, dated 2016).

Test [1] concerns HCV genotype 1b (Con1) replicon in HUH-7 cells. Kind of test: HCV replicon luciferase reporter assay, genotype 1b. Type of test: cell-based. To be noted: Hepatitis C virus, Huh-7, 72 h, HCV genotype 1b replicon luciferase, 3 days incubation, read-out: LE_1b (EC50, range). In outline:
(§1)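 Replicon inhibition for both genotypes was measured as Renilla luciferase signal (EnduRen, 7.5 μM final, 2 h) after 3-day, 37° C exposure of replicon-bearing HUH-7 cells in 4% FCS DMEM, 0.5% DMSO. The 1b construct carries S1179I; the 1a H77 construct carries P1496L and S2204I. Twenty-point, 3-fold dilutions were fitted four-parametrically for EC50, and CC50 was taken from multiplexed Cell Titer-Blue.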

The subject of test [2] is HCV genotype 1a (H77 strain) replicon in HUH-7 cells. The experiment in a line: HCV replicon luciferase reporter assay, genotype 1a. The format is cell-based. To be noted: Hepatitis C virus, Huh-7, 72 h, HCV genotype 1a replicon luciferase, 3 days incubation, read-out: LE_1a (EC50, range). The essentials:
as §1
In general terms: In antiviral work, replicon cells carry a viral genome segment that copies itself.

The structures appear in SMILES notation.

The term EC50 denotes the concentration at which the effect is half-maximal.

`CC(C)Oc1ccc2c(O[C@@H]3C[C@H]4C(=O)N[C@]5(C(=O)NS(=O)(=O)C6CC6)C[C@H]5/C=C\CC[C@@H](C)C[C@@H](C)[C@H](NC(=O)OC(C)(C)C(F)(F)F)C(=O)N4C3)nccc2c1` [Compound 5148, 1,1,1-trifluoro-2-methylpropan-2-yl((2R,6S,7R,9R,13aS,14aR,16aS,Z)-14a-((cyclopropylsulfonyl)carbamoyl)-2-((6-isopropoxyisoquinolin-1-yl)oxy)-7,9-dimethyl-5,16-dioxo-1,2,3,5,6,7,8,9,10,11,13a,14,14a,15,16,16a-hexadecahydrocyclopropa[e]pyrrolo[1,2-a][1,4]diazacyclopentadecin-6-yl)carbamate]: the EC50 in test [1] and in test [2] was less than 5.46 nM throughout.

As to `CC(C)Oc1ccc2c(O[C@@H]3C[C@H]4C(=O)N[C@]5(C(=O)NS(=O)(=O)C6CC6)C[C@H]5/C=C\CC[C@H](C)C[C@@H](C)[C@H](NC(=O)O[C@H](C)C(F)(F)F)C(=O)N4C3)nccc2c1` [Compound 5149, (R)-1,1,1-trifluoropropan-2-yl((2R,6S,7R,9S,13aS,14aR,16aS,Z)-14a-((cyclopropylsulfonyl)carbamoyl)-2-((6-isopropoxyisoquinolin-1-yl)oxy)-7,9-dimethyl-5,16-dioxo-1,2,3,5,6,7,8,9,10,11,13a,14,14a,15,16,16a-hexadecahydrocyclopropa[e]pyrrolo[1,2-a][1,4]diazacyclopentadecin-6-yl)carbamate], the values for the EC50 in test [1] and in test [2] were less than 5.46 nM and 4.82 to 103 nM, respectively.

As for `CC(C)Oc1ccc2c(O[C@@H]3C[C@H]4C(=O)N[C@]5(C(=O)NS(=O)(=O)C6CC6)C[C@H]5/C=C\CC[C@@H](C)C[C@@H](C)[C@H](NC(=O)O[C@H](C)C(F)(F)F)C(=O)N4C3)nccc2c1` [Compound 5150, (R)-1,1,1-trifluoropropan-2-yl((2R,6S,7R,9R,13aS,14aR,16aS,Z)-14a-((cyclopropylsulfonyl)carbamoyl)-2-((6-isopropoxyisoquinolin-1-yl)oxy)-7,9-dimethyl-5,16-dioxo-1,2,3,5,6,7,8,9,10,11,13a,14,14a,15,16,16a-hexadecahydrocyclopropa[e]pyrrolo[1,2-a][1,4]diazacyclopentadecin-6-yl)carbamate], the EC50 in test [1] and in test [2] was less than 5.46 nM throughout.

With `[2H]C([2H])([2H])C(C)(OC(=O)N[C@@H]1C(=O)N2C[C@H](Oc3nccc4cc(OC(C)C)ccc34)C[C@H]2C(=O)N[C@]2(C(=O)NS(=O)(=O)C3CC3)C[C@H]2/C=C\CC[C@H](C)C[C@H]1C)C([2H])([2H])[2H]` [Compound 5152, 1,1,1,3,3,3-hexadeutero-2-methylpropan-2-yl((2R,6S,7R,9S,13aS,14aR,16aS,Z)-14a-((cyclopropylsulfonyl)carbamoyl)-2-((6-isopropoxyisoquinolin-1-yl)oxy)-7,9-dimethyl-5,16-dioxo-1,2,3,5,6,7,8,9,10,11,13a,14,14a,15,16,16a-hexadecahydrocyclopropa[e]pyrrolo[1,2-a][1,4]diazacyclopentadecin-6-yl)carbamate], the EC50 in test [1] and in test [2] was 4.82 to 103 nM each time.

As to `[2H]C([2H])([2H])C(C)(OC(=O)N[C@@H]1C(=O)N2C[C@H](Oc3nccc4cc(OC(C)C)ccc34)C[C@H]2C(=O)N[C@]2(C(=O)NS(=O)(=O)C3CC3)C[C@H]2/C=C\CC[C@@H](C)C[C@H]1C)C([2H])([2H])[2H]` [Compound 5153, 1,1,1,3,3,3-hexadeutero-2-methylpropan-2-yl((2R,6S,7R,9R,13aS,14aR,16aS,Z)-14a-((cyclopropylsulfonyl)carbamoyl)-2-((6-isopropoxyisoquinolin-1-yl)oxy)-7,9-dimethyl-5,16-dioxo-1,2,3,5,6,7,8,9,10,11,13a,14,14a,15,16,16a-hexadecahydrocyclopropa[e]pyrrolo[1,2-a][1,4]diazacyclopentadecin-6-yl)carbamate], the EC50 in test [1] and in test [2] was less than 5.46 nM in each case.

Regarding `[2H]C([2H])([2H])C(OC(=O)N[C@@H]1C(=O)N2C[C@H](Oc3nccc4cc(OC(C)C)ccc34)C[C@H]2C(=O)N[C@]2(C(=O)NS(=O)(=O)C3CC3)C[C@H]2/C=C\CC[C@H](C)C[C@H]1C)(C([2H])([2H])[2H])C([2H])([2H])[2H]` [Compound 5154, 1,1,1,3,3,3-hexadeutero-2-(trideuteromethyl)propan-2-yl((2R,6S,7R,9S,13aS,14aR,16aS,Z)-14a-((cyclopropylsulfonyl)carbamoyl)-2-((6-isopropoxyisoquinolin-1-yl)oxy)-7,9-dimethyl-5,16-dioxo-1,2,3,5,6,7,8,9,10,11,13a,14,14a,15,16,16a-hexadecahydrocyclopropa[e]pyrrolo[1,2-a][1,4]diazacyclopentadecin-6-yl)carbamate], the EC50 in test [1] and in test [2] was 4.82 to 103 nM throughout.

Take `[2H]C([2H])([2H])C(OC(=O)N[C@@H]1C(=O)N2C[C@H](Oc3nccc4cc(OC(C)C)ccc34)C[C@H]2C(=O)N[C@]2(C(=O)NS(=O)(=O)C3CC3)C[C@H]2/C=C\CC[C@@H](C)C[C@H]1C)(C([2H])([2H])[2H])C([2H])([2H])[2H]` [Compound 5155, 1,1,1,3,3,3-hexadeutero-2-(trideuteromethyl)propan-2-yl((2R,6S,7R,9R,13aS,14aR,16aS,Z)-14a-((cyclopropylsulfonyl)carbamoyl)-2-((6-isopropoxyisoquinolin-1-yl)oxy)-7,9-dimethyl-5,16-dioxo-1,2,3,5,6,7,8,9,10,11,13a,14,14a,15,16,16a-hexadecahydrocyclopropa[e]pyrrolo[1,2-a][1,4]diazacyclopentadecin-6-yl)carbamate]: the EC50 in test [1] and in test [2] was less than 5.46 nM throughout.

As for `CC(C)Oc1ccc2c(O[C@@H]3C[C@H]4C(=O)N[C@]5(C(=O)NS(=O)(=O)C6(C)CC6)C[C@H]5/C=C\CC[C@H](C)C[C@@H](C)[C@H](NC(=O)OC(C)(C)C)C(=O)N4C3)nccc2c1` [Compound 5156, tert-butyl ((2R,6S,7R,9S,13aS,14aR,16aS,Z)-2-((6-isopropoxyisoquinolin-1-yl)oxy)-7,9-dimethyl-14a-(((1-methylcyclopropyl)sulfonyl)carbamoyl)-5,16-dioxo-1,2,3,5,6,7,8,9,10,11,13a,14,14a,15,16,16a-hexadecahydrocyclopropa[e]pyrrolo[1,2-a][1,4]diazacyclopentadecin-6-yl)carbamate], the EC50 in test [1] and in test [2] was 4.82 to 103 nM each time.

On to `CC(C)Oc1ccc2c(O[C@@H]3C[C@H]4C(=O)N[C@]5(C(=O)NS(=O)(=O)C6(C)CC6)C[C@H]5/C=C\CC[C@@H](C)C[C@@H](C)[C@H](NC(=O)OC(C)(C)C)C(=O)N4C3)nccc2c1` [Compound 5157, tert-butyl ((2R,6S,7R,9R,13aS,14aR,16aS,Z)-2-((6-isopropoxyisoquinolin-1-yl)oxy)-7,9-dimethyl-14a-(((1-methylcyclopropyl)sulfonyl)carbamoyl)-5,16-dioxo-1,2,3,5,6,7,8,9,10,11,13a,14,14a,15,16,16a-hexadecahydrocyclopropa[e]pyrrolo[1,2-a][1,4]diazacyclopentadecin-6-yl)carbamate], for which the EC50 in test [1] and in test [2] was less than 5.46 nM in each case.
